A short description of data set [1]: Dissociation constant, pKa of the compound at 10 mM by pressure-assisted capillary electrophoretic/mass spectrometric analysis. The format is physicochemical.
Data set [2] in a line: Octanol-buffer partition coefficient, log D of the compound after 30 mins by shake flask method at pH 7.4.
Data set [3] is described as follows: Apparent permeability of the compound from apical to basal side of human Caco2 cells at 1 uM after 60 mins by LCMS analysis. Conditions: Caco-2. The format is ADME, cell-based. In general terms: Caco-2 cells form a polarised layer with tight junctions and transporters.
Another data set in a line: in vitro. Conditions: human, Caco-2.

Each structure is given as a SMILES string. A value given as a limit tells only on which side of the number the result lay.

Description for in vitro: Efflux ratio of apparent permeability of the compound from basal to apical to apical to basal side of human Caco2 cells at 1 uM after 60 mins by LCMS analysis

What is called pKa is the pH at which an ionisable group is half protonated. The low end stands for a group that gives up its proton readily, the high end for a group that holds its proton tightly. A word on the logD: it is the decadic logarithm of the distribution of all forms, ionised or not, between an organic phase and buffer at a given pH. Higher therefore signals a more lipophilic compound. Broadly, the Papp A→B is the apparent permeability from the apical to the basolateral side of a cell layer. Broadly, the efflux ratio is the permeability from basolateral to apical divided by that in the opposite direction, in the common usage. Consider `N#Cc1cccc(-c2cccc(-c3nn[nH]n3)c2)c1`, for which the pKa at 10000 µM in data set [1] amounted to 4. The logD at 0.5 h in data set [2] amounted to 0.7. In addition, the apical-to-basolateral permeability (Papp A→B) at 1 h, 1 µM in data set [3] was < 0.3 ×10⁻⁶ cm/s. In the data set “in vitro”, the efflux ratio at 1 h, 1 µM is 255.

In data set [1], `Cc1ccc(-c2cccc(-c3nn[nH]n3)c2)cc1` had a pKa at 10000 µM of 4.1. The molecule also came in with a logD at 0.5 h in data set [2] of 1.3.

For `N#Cc1cccc(-c2cccc(C(=O)O)c2)c1`, the log distribution coefficient (logD) at 0.5 h in data set [2] is 0.3.

`Cc1ccc(-c2cccc(C(=O)O)c2)cc1` gave a pKa at 10000 µM in data set [1] of 4.

Consider `C[C@@H]1N[S@](=O)(c2cccc(-c3cccc(C#N)c3)c2)=NC1=O`, for which the pKa at 10000 µM in data set [1] is 5.8. Moreover, in data set [3], the apparent permeability from apical to basolateral (Papp A→B) at 1 h, 1 µM was 2.3 ×10⁻⁶ cm/s.

In data set [1], `Cc1ccc(-c2cccc([S@]3(=O)=NC(=O)[C@H](C)N3)c2)cc1` returned a pKa at 10000 µM of 6. For the same molecule, the apical-to-basolateral permeability (Papp A→B) at 1 h, 1 µM in data set [3] came out at 66 ×10⁻⁶ cm/s.

The record behind these values is ChEMBL document CHEMBL2086377, “Synthesis and functionalization of cyclic sulfonimidamides: a novel chiral heterocyclic carboxylic Acid bioisostere” (ACS Med Chem Lett, 2012).
